# Paper PMC12670779, “Targeting the CXCL12/CXCR4 pathway by an optimized derivative or EPI-X4 preserves chondrocyte function and offers a novel therapeutic approach in rheumatic diseases” (Arthritis Research & Therapy, 2025)
# Counter-ions that a name gives are not always drawn. Like-named read-outs stand apart in the source and are kept apart here. Residues, ends and D or L forms follow the SMILES beside them.
# Legend:
# [1] = system: human articular chondrocytes (hAC); experiment: Ki-67 immunocytochemistry (proliferation); format: cell-based; details: 48 h; 200 ng/mL CXCL12; simultaneous addition of inhibitors 1 µM; n = 4
# Description: On the next day, an Alexa Fluor 488 labled anti-rabbit antibody (1:200, ab150077, Abcam) was added and nuclei were stained with DAPI (0.25 µg/mL). The fluorescence microscope Axioskop 2 mot plus was used for imaging and Ki-67 appeared in green and nuclei in blue.
# [2] = system: human articular chondrocytes (hAC); experiment: Osteogenic differentiation of hAC, Alizarin Red S staining (calcium deposition); format: cell-based; details: 21 d osteogenic differentiation medium; 200 ng/mL CXCL12; inhibitors 1 µM; n = 5
# Description: (§1) hAC were seeded in passage 2 at a density of 1 × 10^4 cells/cm^2 and osteogenic differentiation was induced on the next day by addition of osteogenic differentiation medium [ODM: DMEM, 10% FBS, 1 g/L glucose, 1% L-glutamine, 1% penicillin/streptomycin, 10 mM β-glycerophosphate disodium salt hydrate (Sigma-Aldrich), 0.1 µM dexamethasone, 200 µM 2-phospho-L-ascorbic acid trisodium salt]. […] Medium was changed twice a week and additives were refreshed every time. Cells cultured in BM served as negative control.
# Evaluation of osteogenic differentiation was carried out by means of an Alizarin Red S staining which indicates calcium deposition. At first, cells were incubated in 70% ethanol for 1 h and subsequently stained with a 40 mM Alizarin Red S solution. For quantification, the cells were washed carefully and bound Alizarin Red S was dissolved in 10% Cetylpyridinium (Sigma-Aldrich). With a multimode microplate reader Infinite M200 Pro (Tecan Austria GmbH, Crailsheim, Germany), absorbance at 652 nm was measured and the amount of Alizarin Red S was calculated based on a standard calibration curve.
# [3] = system: human articular chondrocytes (hAC); experiment: Gene expression during osteogenic differentiation of hAC (qRT-PCR); format: cell-based; details: 14 d osteogenic differentiation; 200 ng/mL CXCL12; inhibitors 1 µM; n = 4
# Description: as §1
# ACKR3 [4] = biological target: T1, ACKR3 (Homo sapiens, UniProt P25106); details: cited from earlier work
# From the text: (§2) In case of CXCR4, there is evidence that binding of CXCL12 promotes a hypertrophic phenotype in chondrocytes, characterized by enhanced catabolic enzyme production (e.g., matrix metalloproteinase 13 (MMP-13)) and collagen type X expression.
# [5] = system: Dunkin Hartley guinea pigs; details: cited from earlier work
# From the text: as §2
# mice [6] = details: cited from earlier work
# From the text: as §2
# mice [7] = details: cited from earlier work; remark: listed apart in the source
# From the text: as §2, with “expression. […] It should also be considered that the pathophysiological mechanisms are not mediated by chondrocytes alone.” for “expression.”
# mouse = details: both inflammatory mouse models; cited from earlier work
# From the text: To date, three CXCR4 antagonist have been approved for clinical applications. However, these ligands are only approved for autologous stem cell transplantation in Non-Hodgkin’s lymphoma and the treatment of the WHIM syndrome, a rare congenital immunodeficiency disorder. One decade ago, another promising CXCR4 inhibitor was identified – the Endogenous Peptide Inhibitor of CXCR4, termed EPI-X4 [33]. EPI-X4 is a 16 amino acids long endogenous fragment of human serum albumin and specifically binds to CXCR4 thereby acting as an antagonist and inverse agonist. Using rational dru ...
# MSCs = details: AMD3100 400 µM, cited from earlier work
# [8] = cited from earlier work
# ACKR3 [9] = biological target: T1, ACKR3; experiment: β-arrestin-2 recruitment at ACKR3, agonism (NanoBiT, transfected HEK293T cells); format: cell-based; set-up: SmBiT (NanoBiT fragment); expressed in transfected cells; host or cells: HEK293T; details: compound alone
# Description: Fifteen thousand HEK293T cells were seeded in 92 µL complete DMEM medium (supplemented with 10% FCS, 1% L-Glutamine and 1% penicillin/streptomycin) and allowed to adhere overnight. On the next day cells were transfected with plasmids containing a β-arrestin-2 coupled to a SmBiT and a CXCR4 or ACKR3 construct coupled to the LgBiT of the NanoBiT protein–protein-interaction assay system. The SmBiT was coupled to the intracellular C-term of the receptor, while the LgBiT was coupled to the N-term of the ß-arrestin. For the transfection, LT1 transfection reagent was used according to manufacturer’s instructions. The next day, medium was changed to 100µL pre-warmed OptiMEM before luminescence measurements were initiated.
# For agonism measurements, single compounds were added to the wells after 10 min of background measurement. Baseline correction was performed in the same manner and resulting AUCs were compared to the buffer-only control wells to calculate n-fold ß-arrestin induction.
# CXCR4 = biological target: T2, CXCR4 (Homo sapiens, UniProt P61073); experiment: Inhibition of CXCL12-induced β-arrestin-2 recruitment at CXCR4 (NanoBiT, transfected HEK293T cells); format: cell-based
# T2 construct: SmBiT (NanoBiT fragment); expressed in transfected cells; host or cells: HEK293T
# Description: Fifteen thousand HEK293T cells were seeded in 92 µL complete DMEM medium (supplemented with 10% FCS, 1% L-Glutamine and 1% penicillin/streptomycin) and allowed to adhere overnight. On the next day cells were transfected with plasmids containing a β-arrestin-2 coupled to a SmBiT and a CXCR4 or ACKR3 construct coupled to the LgBiT of the NanoBiT protein–protein-interaction assay system. […] For the transfection, LT1 transfection reagent was used according to manufacturer’s instructions. The next day, medium was changed to 100µL pre-warmed OptiMEM before luminescence measurements were initiated.
# For antagonism measurements, cells were first supplied with compounds and 10 min later with 30 nM CXCL12. Subsequently, luminescence signal was measured over 1 h. Baseline luminescence of each well in the first 10 min was averaged and used to calculate the signal-to-noise ratio for all subsequent time points of the same well. The signal-to-noise ratios were further recalculated as a ratio to the average of buffer-only treated wells. These values were plotted over time and areas under curve (AUCs) were determined for each well. Data were normalized to buffer-only wells as 0% and CXCL12-only treated wells as 100%.
# [10] = system: human articular chondrocytes (hAC); experiment: alamarBlue cytotoxicity/cell proliferation assay; format: cell-based; details: 24 h; 200 ng/mL CXCL12; CXCR4 inhibitors 1 µM in combination with CXCL12 or alone; n = 5
# Description: (§3) During experiments, hAC were cultured in medium with reduced FBS content (5%) and stimulated with 200 ng/mL CXCL12, 1 µM compounds and/or 10 ng/mL IL-1β. Stress-induced premature senescence (SIPS) was induced by Doxorubicin (Doxo) (Selleckchem) treatment. The senescent phenotype was confirmed as previously described. In brief, hAC were exposed to 0.1 µM Doxo for 7 days. Doxo was refreshed three times per week.
# To quantitatively assess the cell proliferation and cytotoxicity of hAC, an alamarBlue (BioRad, Munich, Germany) assay was used. The assay is based on the conversion of non-fluorescent resazurin to fluorescent resorufin during cellular respiration. The fluorescence intensity of resorufin was measured at 550 nm excitation and 590 nm emission with a multimode microplate reader Infinite M200 Pro (Tecan, Crailsheim, Germany). Unstimulated cells served as baseline (100% cell viability).
# human cartilage explants = experiment: Live/dead viability/cytotoxicity assay in cartilage explants; format: cell-based; details: day 7; 200 ng/mL CXCL12 with or without CXCR4 inhibitors 1 µM; n = 5
# Description: A Live/Dead Viability/Cytotoxicity Assay (Live Technologies) was applied to determine the number of living and dead cells in cartilage explants. A small tissue section of 0.5 mm thickness was extracted from an unfixed cartilage explant and incubated for 40 min in a staining solution (1 µM calcein and 2 µM ethidium homodimer-1). Microscopic analysis was carried out with a Axioskop 2 mot plus microscope and using a z-stack model (AxioVision software).
# [11] = system: human articular chondrocytes (hAC); experiment: Gene expression of hypertrophy markers in isolated hAC (qRT-PCR); format: cell-based; details: 48 h; 200 ng/mL CXCL12; n = 4
# Description: as §3
# [12] = system: human articular chondrocytes (hAC); experiment: Chondrogenic re-differentiation of hAC in pellet culture, histological scoring; format: cell-based; details: 28 d in chondrogenic differentiation medium; 200 ng/mL CXCL12; inhibitors 1 µM; n ≥ 4
# Description: Pellet cultures were generated containing 3.5 × 10^5 hAC in passage 3 and were cultured in chondrogenic differentiation medium [SFM: DMEM, 4.5 g/L glucose, 1% L-glutamine, 1% penicillin/streptomycin, 200 μM 2-phospho-L-ascorbic acid trisodium salt, 0.1% Insulin-Transferrin-Selenium, 0.1 µM dexamethasone (Sigma-Aldrich), 40 µg/mL L-proline (Sigma-Aldrich), 1% pyruvate, 10 ng/mL rhTGF-β3 (PeproTech), 10 ng/mL rhBMP6 (PeproTech)]. The medium was changed twice per week and 200 ng/mL CXCL12 and 1 µM compounds was added. After 28 days, resulting cell pellets were embedded in paraffin and prepared for histology (Collagen type II-IHC and Safranin O staining). For evaluation, a previously established scoring system was used (supplementary Table S2).
# [13] = system: human articular chondrocytes (hAC); experiment: Wound healing assay; format: cell-based; details: 24 h; 200 ng/mL CXCL12; inhibitors 1 µM; 5% FBS; n ≥ 5
# Description: At first, a 2 Well Culture-Insert (Ibidi, Gräfelfing, Germany) was attached on a well of a 24 well plate. In each well of the insert, 70 µL cell suspension containing 20,000 hAC (passage 1 or 2) was added and incubated overnight. Next, medium with reduced FBS content (5%) was added and the insert carefully removed. […] Images were captured (Canon EOS 700D camera (Canon, Krefeld, Germany)) after 0 h and 24 h. Cells migrated into the gap were manually counted as previously described.
# [14] = system: human articular chondrocytes (hAC); experiment: Live cell imaging of undirected migration; format: cell-based; details: 200 ng/mL CXCL12; inhibitors 1 µM; monitored for 10 h (method), legend says 48 h; normalized to untreated control; n = 5
# Description: Subsequently, cell localization was monitored for 10 h with a Live Cell Imaging Microscope Leica DMI6000 I (Leica Microsystems, Wetzlar, Germany). Images were acquired every 30 min and at least 6 cells of each well were manually tracked with ImageJ 2.9.0. The average migration distance was calculated and values were normalized to the untreated control.
# T1 sequence (P25106 whole entry): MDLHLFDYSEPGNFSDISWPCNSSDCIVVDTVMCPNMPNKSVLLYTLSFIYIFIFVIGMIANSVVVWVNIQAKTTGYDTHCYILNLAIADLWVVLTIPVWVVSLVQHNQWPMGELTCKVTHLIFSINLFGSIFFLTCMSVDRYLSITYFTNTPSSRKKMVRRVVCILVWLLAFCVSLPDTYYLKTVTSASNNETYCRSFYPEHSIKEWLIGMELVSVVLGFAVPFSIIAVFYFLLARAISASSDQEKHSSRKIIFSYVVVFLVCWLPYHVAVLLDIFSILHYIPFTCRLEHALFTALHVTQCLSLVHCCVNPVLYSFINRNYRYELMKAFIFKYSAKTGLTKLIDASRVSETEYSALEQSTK
# T1 sequence (P32121 whole entry partner): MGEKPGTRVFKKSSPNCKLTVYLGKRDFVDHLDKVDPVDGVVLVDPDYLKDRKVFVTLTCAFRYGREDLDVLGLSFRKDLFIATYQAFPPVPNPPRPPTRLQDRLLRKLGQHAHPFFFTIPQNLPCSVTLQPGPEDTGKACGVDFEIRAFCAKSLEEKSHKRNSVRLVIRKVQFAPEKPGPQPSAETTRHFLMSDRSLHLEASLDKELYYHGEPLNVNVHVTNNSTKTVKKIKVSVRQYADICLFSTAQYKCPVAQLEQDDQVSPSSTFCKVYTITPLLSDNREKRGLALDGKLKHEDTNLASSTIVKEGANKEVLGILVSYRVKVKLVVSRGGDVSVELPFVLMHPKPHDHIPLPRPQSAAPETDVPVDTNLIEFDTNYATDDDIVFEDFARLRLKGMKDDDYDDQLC
# T2 sequence (P61073 whole entry, the tested form may be a part): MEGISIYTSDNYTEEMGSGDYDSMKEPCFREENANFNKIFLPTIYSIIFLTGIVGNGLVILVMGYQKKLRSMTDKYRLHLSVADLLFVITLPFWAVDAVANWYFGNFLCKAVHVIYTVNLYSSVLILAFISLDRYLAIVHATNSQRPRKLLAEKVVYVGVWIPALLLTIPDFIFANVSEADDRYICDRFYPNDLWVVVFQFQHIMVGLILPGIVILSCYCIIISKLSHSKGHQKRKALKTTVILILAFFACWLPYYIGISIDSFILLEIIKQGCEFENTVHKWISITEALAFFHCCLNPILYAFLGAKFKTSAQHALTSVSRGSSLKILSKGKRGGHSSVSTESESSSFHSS
compound,measurement,setting,value
"c1cc(CN2CCCNCCNCCCNCC2)ccc1CN1CCCNCCNCCCNCC1 [AMD3100, AMD3100 octahydrochloride hydrate]",proliferation (Ki-67-positive cells),[1],not altered
same,Ca2+ deposition / matrix calcification (Alizarin Red S),[2],could not find any influence
same,expression of the hypertrophic marker COL10A1 during osteogenic differentiation,[3],significantly reduced
same,"gene expression of osteogenic markers (ALPL, RUNX2, SP7, IBSP)",[3],could not find any influence
same,activity at ACKR3,ACKR3 [4],weak allosteric agonist
same,spontaneous OA development,[5],attenuate
same,collagen-induced arthritis (CIA),mice [6],attenuate
same,surgically-induced OA,mice [7]; mice,attenuate
same,severity of surgically-induced OA on inhibition in subchondral bone,"mice [7]; mouse model, delivery to subchondral bone via an osmotic pump",reduced the severity
same,activity in mouse models of atopic dermatitis and eosinophilic asthma,mouse,only poorly active
same,matrix calcification during in vitro osteogenesis of MSCs,MSCs,not affected
same,gene expression of osteogenic markers during in vitro osteogenesis of MSCs,MSCs; to a limited extend,impaired
same,clinical peak plasma concentrations,[8],~ 1 μM
same,agonistic activity to recruit β-arrestin-2 at ACKR3,ACKR3 [9]; concentrations up to 10 µM,weak agonistic activity
CC[C@H](C)[C@H](N)C(=O)N[C@@H](CC(C)C)C(=O)N[C@@H](CCCNC(=N)N)C(=O)N[C@@H](Cc1c[nH]c2ccccc12)C(=O)N[C@@H](CO)C(=O)N[C@@H](CCCNC(=N)N)C(=O)N[C@@H](CCCCN)C(=O)N[C@@H](CC(C)C)C(=O)N1CCC[C@H]1C(=O)N[C@@H](CS)C(=O)N[C@H](C(=O)N[C@@H](CO)C(=O)O)C(C)C [EPI-X4 JM#21],IC50,"CXCR4; read-out: IC50, inhibition of CXCL12-induced recruitment of β-arrestin-2 at CXCR4",164 nM
same,EC50,ACKR3 [9]; AUC vs buffer-only control,7800 nM
CC(C)C[C@H](NC(=O)[C@@H](NC(=O)[C@@H]1CCCN1C(=O)[C@@H](NC(=O)[C@H](CO)NC(=O)[C@@H](NC(=O)[C@H](CCC(N)=O)NC(=O)[C@@H]1CCCN1C(=O)[C@@H](NC(=O)[C@H](CCCCN)NC(=O)[C@H](CCCCN)NC(=O)[C@@H](NC(=O)[C@H](Cc1ccc(O)cc1)NC(=O)[C@H](CCCNC(=N)N)NC(=O)[C@@H](NC(=O)[C@@H](N)CC(C)C)C(C)C)[C@@H](C)O)C(C)C)C(C)C)[C@@H](C)O)[C@@H](C)O)C(=O)O [EPI-X4] (H-LVRYTKKVPQVSTPTL-OH),IC50,CXCR4,10.2 nM
"CXCL12: C-X-C motif chemokine 12, ligand of CXCR4 and ACKR3; used as stimulus at 200 ng/mL","cytotoxic effects in isolated chondrocytes (alamarBlue, relative fluorescence intensity)",[10],did not observe any cytotoxic effects
same,cytotoxic effects in native cartilage tissue (live/dead assay),human cartilage explants,did not observe any cytotoxic effects
same,gene expression of COL10A1 in isolated chondrocytes,[11],did not significantly induce
same,gene expression of MMP13 in isolated chondrocytes,[11],did not significantly induce
same,"neocartilage formation, histologic assessment (score) of pellet culture",[12],did not reveal any significant effect
same,number of migrated hAC in wound healing assay,[13],significantly increased
same,migration distance of isolated hAC (live cell tracking),[14],increased
same,proliferation (Ki-67-positive cells),[1],not altered
same,Ca2+ deposition / matrix calcification (Alizarin Red S),[2],could not find any influence
same,expression of the hypertrophic marker COL10A1 during osteogenic differentiation,[3],tended to increase
same,"gene expression of osteogenic markers (ALPL, RUNX2, SP7, IBSP)",[3],could not find any influence
